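Test compounds were applied to cells in 96-well plates for 48 hours at 5 doses. GI50 marks 50% less growth.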 Active and inactive are the calls of the source. No stated cut-off is given here; in the data, active = GI50 up to about 1.1 µM and inactive = higher.
How the values were obtained:
Assay in all cases: NCI-60 cell line screen, 48 h
SK-OV-3 = tested on: SK-OV-3
MDA-MB-435 = tested on: MDA-MB-435
LOX IMVI = tested on: LOX IMVI
HL-60 = tested on: HL-60
RXF 393 = tested on: RXF 393
OVCAR-8 = tested on: OVCAR-8
HCT-15 = tested on: HCT-15
KM12 = tested on: KM12
SN12C = tested on: SN12C
NCI-H460 = tested on: NCI-H460
HCC 2998 = tested on: HCC 2998
MOLT-4 = tested on: MOLT-4
786-0 = tested on: 786-0
SF-539 = tested on: SF-539
UACC-62 = tested on: UACC-62
Hs-578T = tested on: Hs-578T
HOP-92 = tested on: HOP-92
SNB-19 = tested on: SNB-19
RPMI-8226 = tested on: RPMI-8226
SW-620 = tested on: SW-620

| SMILES | GI50 (SK-OV-3) | GI50 (MDA-MB-435) | GI50 (LOX IMVI) | GI50 (HL-60) | GI50 (RXF 393) | GI50 (OVCAR-8) | GI50 (HCT-15) [µM] | GI50 (KM12) | GI50 (SN12C) | GI50 (NCI-H460) | GI50 (HCC 2998) | GI50 (MOLT-4) | GI50 (786-0) | GI50 (SF-539) | GI50 (UACC-62) | GI50 (Hs-578T) | GI50 (HOP-92) | GI50 (SNB-19) | GI50 (RPMI-8226) | GI50 (SW-620) |
| --- | --- | --- | --- | --- | --- | --- | --- | --- | --- | --- | --- | --- | --- | --- | --- | --- | --- | --- | --- | --- |
| C=C1C(=O)O[C@H]2[C@H]3O[C@@H](C[C@@H]12)[C@](C)(O)CC[C@@H]1O[C@@]1(C)CCC[C@H]3C | 29.4 µM (inactive) | 17.1 µM (inactive) | 16 µM (inactive) | 27 µM (inactive) | 13 µM (inactive) | 15.7 µM (inactive) | 16.9 | 20 µM (inactive) | 20.3 µM (inactive) | 24.8 µM (inactive) | 25.8 µM (inactive) | 30.3 µM (inactive) | 11.7 µM (inactive) | 18.7 µM (inactive) | 16.5 µM (inactive) | 30.3 µM (inactive) | 16.4 µM (inactive) | 36.3 µM (inactive) | 47.2 µM (inactive) | 19.2 µM (inactive) |
| Cc1noc(NS(=O)(=O)c2ccc(NC(=O)c3ccc4[nH]c5ccccc5c(=O)c4c3)cc2)c1C | 61.9 µM (inactive) | 35.6 µM (inactive) | 22.8 µM (inactive) | 27.4 µM (inactive) | 36.4 µM (inactive) | 32.2 µM (inactive) | > 100 | 36.1 µM (inactive) | > 100 µM (inactive) | 87.9 µM (inactive) | 22.3 µM (inactive) | 21.9 µM (inactive) | 46.2 µM (inactive) | 20.6 µM (inactive) | 49.5 µM (inactive) | 42 µM (inactive) | 37.3 µM (inactive) | 87.9 µM (inactive) | 50.4 µM (inactive) | > 100 µM (inactive) |
| Oc1cc(F)cc2cccnc12 | 4.45 µM (inactive) | 2.38 µM (inactive) | 0.362 µM (active) | 0.0887 µM (active) | 3.75 µM (inactive) | 0.324 µM (active) | 0.25 | 1.3 µM (inactive) | 1.04 µM (active) | 1.24 µM (inactive) | 26.1 µM (inactive) | 0.206 µM (active) | 7.29 µM (inactive) | 1.34 µM (inactive) | 2.73 µM (inactive) | 3.68 µM (inactive) | 0.0356 µM (active) | 5.31 µM (inactive) | 0.259 µM (active) | 0.855 µM (active) |
| NCCSCC(N)C(=O)O (stereo not given) | > 497 µM (inactive) | 51.2 µM (inactive) | > 497 µM (inactive) | > 497 µM (inactive) | > 497 µM (inactive) | > 497 µM (inactive) | > 87.5 | 38 µM (inactive) | > 497 µM (inactive) | 60.1 µM (inactive) | > 497 µM (inactive) | > 497 µM (inactive) | 83.4 µM (inactive) | > 497 µM (inactive) | > 497 µM (inactive) | > 95.1 µM (inactive) | > 497 µM (inactive) | > 497 µM (inactive) | 47.1 µM (inactive) | 46.8 µM (inactive) |
| O=C(NC(=O)c1c(Cl)nc2sccn12)Nc1ccc(Cl)cc1 | 27.4 µM (inactive) | > 100 µM (inactive) | 63.4 µM (inactive) | > 100 µM (inactive) | 30.9 µM (inactive) | 52.6 µM (inactive) | > 96.4 | > 93.5 µM (inactive) | 86.5 µM (inactive) | > 85.9 µM (inactive) | 54.1 µM (inactive) | > 100 µM (inactive) | 35.4 µM (inactive) | 30 µM (inactive) | > 100 µM (inactive) | 8.81 µM (inactive) | 25.1 µM (inactive) | 28.4 µM (inactive) | > 100 µM (inactive) | > 100 µM (inactive) |
| N#C/C(=C\N1CCNC1=S)C(=O)c1ccc2ccccc2c1 | > 100 µM (inactive) | 89.1 µM (inactive) | > 100 µM (inactive) | 7.06 µM (inactive) | > 100 µM (inactive) | > 100 µM (inactive) | > 100 | > 100 µM (inactive) | > 100 µM (inactive) | > 100 µM (inactive) | > 100 µM (inactive) | 37.4 µM (inactive) | > 100 µM (inactive) | > 100 µM (inactive) | > 100 µM (inactive) | > 100 µM (inactive) | > 100 µM (inactive) | > 100 µM (inactive) | 89.7 µM (inactive) | > 100 µM (inactive) |
| O=C(N/N=C\C=C\c1ccc([N+](=O)[O-])o1)C(=O)N/N=C\C=C\c1ccc([N+](=O)[O-])o1 | > 100 µM (inactive) | > 100 µM (inactive) | 4.94 µM (inactive) | 20 µM (inactive) | > 100 µM (inactive) | 23.2 µM (inactive) | 81.7 | > 100 µM (inactive) | > 100 µM (inactive) | > 100 µM (inactive) | > 100 µM (inactive) | 24.1 µM (inactive) | > 100 µM (inactive) | 3.19 µM (inactive) | > 100 µM (inactive) | > 100 µM (inactive) | > 100 µM (inactive) | > 100 µM (inactive) | 28.4 µM (inactive) | 24.5 µM (inactive) |
| Cc1oncc1/N=C1\C=C(O)C(=O)c2ccccc21 | 15.7 µM (inactive) | 1.92 µM (inactive) | 2.73 µM (inactive) | 2.26 µM (inactive) | 13.2 µM (inactive) | 2.53 µM (inactive) | 3.72 | 6.21 µM (inactive) | 5.73 µM (inactive) | 3.91 µM (inactive) | 16.8 µM (inactive) | 2.5 µM (inactive) | 18.2 µM (inactive) | 4.65 µM (inactive) | 2.99 µM (inactive) | 9.12 µM (inactive) | 10.4 µM (inactive) | 16.3 µM (inactive) | 7.64 µM (inactive) | 4.4 µM (inactive) |
| CSc1ccc2c(c1)C(N1CCN(C)CC1)Cc1ccccc1S2 (stereo not given) | 13.9 µM (inactive) | 2.32 µM (inactive) | 2.01 µM (inactive) | 2.69 µM (inactive) | 2.81 µM (inactive) | 6.84 µM (inactive) | 4.15 | 2.62 µM (inactive) | 6.28 µM (inactive) | 2.47 µM (inactive) | 11.1 µM (inactive) | 2.47 µM (inactive) | 4.47 µM (inactive) | 6.11 µM (inactive) | 2.05 µM (inactive) | 4.4 µM (inactive) | 1.49 µM (inactive) | 13.3 µM (inactive) | 1.91 µM (inactive) | 6.01 µM (inactive) |
| NC(=S)N1N=C(c2ccccc2O)CC1c1ccccc1 (stereo not given) | 13.9 µM (inactive) | 3.02 µM (inactive) | 16.9 µM (inactive) | 3.69 µM (inactive) | 12.4 µM (inactive) | 25.5 µM (inactive) | 5.62 | 7.4 µM (inactive) | 13.8 µM (inactive) | 14 µM (inactive) | 11.6 µM (inactive) | 8.04 µM (inactive) | 21.1 µM (inactive) | 11.8 µM (inactive) | 11.6 µM (inactive) | 20.7 µM (inactive) | 17.1 µM (inactive) | 23.3 µM (inactive) | 11.6 µM (inactive) | 9.59 µM (inactive) |
